What was measured:
Type in all cases: cell-based
[1] = test system: c-MYC in BM cells of patient 5; experiment: Immunoblot of c-MYC in patient bone marrow cells treated ex vivo; conditions: BM cells of patient 5, 250 and 500 nM, 72 h
Procedure: FIGS. 45A-45E illustrate modulation of c-MYC at the protein level in a patient sample. Protein extracts were obtained from bone marrow (BM) cells of patient 5 (FIG. 44D; FIGS. 45A-45D) upon ex vivo treatment with 250 and 500 nM of OTX015 respectively. […] Bone marrow cells from patient 5 were treated with OTX015 at 250 nM and 500 nM and compared to controls exposed to according concentrations with DMSO. Proteins were extracted at 72 h and immunoblotted with appropriate c-MYC antibodies after gel electrophoresis. […] Expression level of cMYC relative to ABL were realised by RQ-PCR at three time points 24, 48 and 72 h (FIG. 45B). Results in FIG. 45B are shown with means±SD from duplicates.
The membranes were blocked with LiCor blocking buffer (LiCor, Lincoln, Nebr., USA) and incubated with the respective primary antibody: anti-BRD4 (Epitomics 5716-1, Burlingame, USA), anti-BRD3 (ab56342, AbCam, UK), anti-BRD2 (ab37633, AbCam, UK), anti c-MYC (sc-764 (N262), Santa Cruz, USA) and anti-GAPDH (Invitrogen 398600, Grand Island, USA). Blots were stained with either goat anti-rabbit InfraRedDye 680RD or goat anti-mouse InfraRedDye 800CWsecondary antibody (LiCor). Membranes were imaged using a LiCor Odyssey scanner. […]

[2] = test system: primary AML patient samples; experiment: Apoptosis in primary patient cells treated ex vivo; conditions: 5 AML patient samples ex vivo, 72 h, 250 and 500 nM
Procedure: (§1) FIGS. 44A-44D show effects of OTX015 on primary patient cells. 5 samples from AML patients and 2 ALL, including 1 ALL Ph+ patient, were treated ex vivo with OTX015. OTX015 induced apoptosis in primary AML patient samples at various degrees ranging from 35-85% (FIG. 6). The Ph+ALL patient appeared to be resistant. OTX015 induced apoptosis in primary cells of the AML and ALL patients. Mononuclear cells were obtained from bone marrow (BM) or peripheral blood (PB) from AML and ALL patients. Cells were exposed 72 h with 250 and 500 nM of OTX015 and apoptosis was assessed by annexin V and PI staining. Results are shown with means±SD from duplicates of one experiment.
(§2) Mononuclear cells (MNC) from the bone marrow (BM) were isolated by Ficoll-Paque PLUS density gradient (Amersham Biosciences, Sunnyvale, USA). Patient cells were maintained in IMDM (Gibco) supplemented with 10% heat-inactivated fetal calf serum, 2 mM L-glutamine, 100 IU/mL penicillin, and 100 µg/mL streptomycin without growth factors.
(§3) a total of 1×10^6 cellsderived from patients or cell lines were resuspended in 1 mL culture medium and incubated with the indicated dosages of OTX015 prepared freshly from 1 mM stock solution in DMSO. […] Apoptotic cells were detected by cytofluorometric analysis using a FACScan (Becton Dickinson, Mountain View, USA). […] Data were analyzed with the Flowjo (Tree Star Inc., Ashland, USA) flow cytometry software. […]

Ph+ALL patient cells = experiment: Apoptosis in primary patient cells treated ex vivo; conditions: 1 Ph+ ALL patient sample ex vivo, 72 h, 250 and 500 nM
Procedure: as §1, §2, §3

HL60 = experiment: Apoptosis assessment (annexin V/PI flow cytometry)
Procedure: (§4) a total of 1×10^6 cellsderived from patients or cell lines were resuspended in 1 mL culture medium and incubated with the indicated dosages of OTX015 prepared freshly from 1 mM stock solution in DMSO. Control cells were incubated with the corresponding amount of dimethyl sulfoxide (DMSO 0.2-1%) to exclude toxicity of the excipient. Apoptotic cells were detected by cytofluorometric analysis using a FACScan (Becton Dickinson, Mountain View, USA). Cells were stained with propidium iodide (PI; 5 μg/mL; Becton Dickinson) and concomitantly for 15 minutes at RT with annexin-V-FITC (Becton Dickinson) according to the manufacturer's instructions to determine outer membrane phosphatidyl serine exposure. Data were analyzed with the Flowjo (Tree Star Inc., Ashland, USA) flow cytometry software.

KG1 = experiment: Apoptosis assessment (annexin V/PI flow cytometry)
Procedure: as §4

K562 = experiment: Apoptosis assessment (annexin V/PI flow cytometry)
Procedure: as §4

KG1a = experiment: Apoptosis assessment (annexin V/PI flow cytometry); conditions: 96 hours at 10 nM
Procedure: as §4

TOM-1 = experiment: Apoptosis assessment (annexin V/PI flow cytometry); conditions: TOM-1, 96 hours at 10 nM
Procedure: as §4

RS4-11 = experiment: Apoptosis assessment (annexin V/PI flow cytometry); conditions: RS4-11, 96 hours at 10 nM
Procedure: as §4

Jurkat = experiment: Apoptosis assessment (annexin V/PI flow cytometry)
Procedure: as §4

[3] = test system: ALL cell lines (Jurkat, RS 4-11, TOM-1) and AML cell lines (HL60, K562, KG1 and KG1a); experiment: Apoptosis assessment, statements over the ALL and AML cell lines
Procedure: as §4
Compound (1-1) induced apoptosis in three ALL cell lines (Jurkat, RS 4-11, TOM-1) and four AML cell lines (HL60, K562, KG1 and KG1a) that were treated with different doses of the drug as detected by outer membrane phosphatidylserine exposure and propidium iodide incorporation at different time points (FIGS. 13A-13C and FIGS. 14A-14D). […] In all other cell lines, 50% of cells became apoptotic within 12 to 24 hours after treatment with 100 nM of Compound (1-1).

Cc1sc2c(c1C)C(c1ccc(Cl)cc1)=N[C@@H](CC(=O)Nc1ccc(O)cc1)c1nnc(C)n1-2 [Compound (1-1), 2-[(6S)-4-(4-chlorophenyl)-2,3,9-trimethyl-6H-thienol[3,2-f]-[1,2,4]triazolo[4,3-a][1,4]diazepin-6-yl]-N-(4-hydroxyphenyl)acetamide dihydrate]
c-MYC protein level [1]: downregulation of c-MYC
apoptosis [2]: 35-85%
sensitivity to apoptosis induction (Ph+ALL patient cells): resistant
delayed apoptosis after drug washout (HL60; HL60, 6 hours exposure, read at 96 hours): significant delayed apoptosis
apoptosis (HL60; HL60, 96 hours at 10 nM): > 90%
induction of apoptosis at lower dose (KG1; KG1, 10 nM, 72 hours): induced apoptosis after prolonged incubation
apoptosis (KG1; KG1, 96 hours at 10 nM): > 90%
delayed apoptosis after drug washout (K562; K562, 6 hours exposure, read at 96 hours): but not in the less sensitive K562
apoptosis (K562; K562, 96 hours at 10 nM): 20%
apoptotic cells (K562; K562, at 24 hours): 20%
apoptosis (KG1a): 45%
apoptosis (TOM-1): 70%
apoptosis (RS4-11): 30%
delayed apoptosis after drug washout (Jurkat; 6 hours exposure, read at 96 hours): significant delayed apoptosis
apoptosis (Jurkat; 96 hours at 10 nM): > 90%
percentage of apoptotic cells ([3]; 100 nM, within 12 to 24 hours, all cell lines other than K562 and KG1a): 50%
induction of apoptosis, dose dependence ([3]; 72 h, KG1a, NOMO1, RS4-11, BV-173, Jurkat, TOM-1): dose-dependent manner
induction of apoptosis ([3]; different doses and time points): induced apoptosis in all cell lines tested but to a lesser extent in K562 and KG1a cells
